These results are taken from US20190046662A1, “Compositions and Methods for Treating Neuropathic Pain” (Rutgers, The State University of New Jersey, priority 2016, published 2019).

Assay type in all cases: in vivo, rat
Assay [1] has as its target T1, hSyn-hM4D (Homo sapiens, UniProt P08173, A203G/Y113C).
T1 construct: expressed in transfected cells; host or cells: rat trigeminal ganglion neurons in vivo, viral vector with synapsin promoter
T1 sequence (P08173 1-479 Y113C/A203G): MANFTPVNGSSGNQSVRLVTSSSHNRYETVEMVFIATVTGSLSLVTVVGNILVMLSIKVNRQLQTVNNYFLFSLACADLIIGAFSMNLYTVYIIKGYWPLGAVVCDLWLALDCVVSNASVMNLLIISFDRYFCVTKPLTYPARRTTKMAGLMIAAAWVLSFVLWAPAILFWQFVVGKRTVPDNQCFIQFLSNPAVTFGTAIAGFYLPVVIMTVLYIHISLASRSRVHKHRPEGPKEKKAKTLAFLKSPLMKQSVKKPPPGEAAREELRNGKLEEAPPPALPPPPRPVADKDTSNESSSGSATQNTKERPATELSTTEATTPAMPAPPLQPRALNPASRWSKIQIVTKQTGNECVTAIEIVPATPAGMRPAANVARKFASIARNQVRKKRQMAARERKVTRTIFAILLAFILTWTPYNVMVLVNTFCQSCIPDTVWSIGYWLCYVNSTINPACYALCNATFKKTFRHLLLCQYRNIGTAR
Nature of the assay: Face grooming after s.c. formalin into right upper lip, synapsin-DREADD (hSyn-hM4D). The conditions noted are these: n=7 per group, vs vehicle. As to the method:
The effects of synapsin-DREADD activation with CNO on face grooming activity observed after subcutaneous (s.c.) injection of formalin into the right upper lip were also studied (FIG. 5). The mean number of seconds that rats (males, n=7 per group; females, n=7 per group) spent grooming (±SEM) is plotted for the 45 minutes post-formalin injection observation period. All animals had synapsin-DREADD (hSyn-hM4D) injected into the right trigeminal ganglion. CNO or vehicle was delivered intraperitoneally 30 minutes prior to the s.c. injection of 1.5% formalin (50 μl) into the right upper lip (ipsilateral side), just lateral to the nose.

The target in assay [2] is T1, hSyn-hM4D. The experiment in a line: Pain-like behavior after infraorbital nerve chronic constriction injury (IoN-CCI), synapsin-DREADD (hSyn-hM4D). The conditions noted are these: IoN-CCI males. From the text: (§1) For the infraorbital nerve chronic constriction injury (ION-CCI), ˜0.5 cm of the infraorbital nerve will be freed and two chromic gut ligatures will be loosely tied around it (2 mm apart) prior to closure of the incision (all performed under ketamine/xylazine anesthesia). As a control, other rats will undergo sham surgery where the infraorbital nerve is exposed but left untouched. This model results in persistent pain beginning at about 2 weeks postoperatively and lasting at least 3 weeks (Benoliel et al. (2001) Neurosci. Lett., 297:151-4; Benoliel et al. (2002) Pain 97:203-12), allowing for the assessment of the effect of vehicle vs CNO/DREADD-mediated inhibition of TG neurons on this behavior at multiple time points. Fos expression and cAMP levels may also be measured in the TG to correlate these molecular endpoints to behavioral effects of DREADD activation. The rats will also undergo repeated stimulation with a 2-g von Frey hair applied to the hairy skin of the vibrissae on the operated side to induce Fos (Vos et al. (1995) J. Comp. Neurol., 357:362-75). Activation of hM4Di receptors will reduce Fos in the TG following von Frey stimulation.
(§2) The effects of synapsin-DREADD activation with CNO on pain-like behavior following chronic constriction injury (CCI) of the infraorbital nerve (ION) were also studied (FIG. 6). The mean von Frey detection thresholds (±SEM) (left) and the mean response scores (±SEM) (right) to the pin-prick stimulation applied to the vibrissal pads were plotted. All animals (males, n=4 per group) were exposed to the infraorbital nerve chronic constriction injury (IoN-CCI) unilaterally. Following IoN-CCI, all animals had synapsin-DREADD (hSyn-hM4D) injected into the ipsilateral trigeminal ganglion. At post-operative day 26 (D26) CNO or vehicle was delivered intraperitoneally 30 minutes prior to behavioral testing.

The target of assay [3] is T2, hTac1-hM4D (Homo sapiens, UniProt P08173, A203G/Y113C).
T2 construct: expressed in transfected cells; host or cells: rat trigeminal ganglion neurons in vivo, viral vector with Tac1 promoter
T2 sequence (P08173 1-479 Y113C/A203G): T1 sequence (P08173 1-479 Y113C/A203G)
The experiment in a line: Face grooming after s.c. formalin into right upper lip, Tac1-DREADD (hTac1-hM4D). Conditions: females, n=7 per group, vs vehicle. On the procedure: The effects of Tac1-DREADD activation with CNO on face grooming activity observed after s.c. injection of formalin into the right upper lip were also studied (FIG. 9). The mean number of seconds that rats (females, n=7 per group) spent grooming (±SEM) is plotted for the 45 minutes post-formalin injection observation period. All animals had Tac1-DREADD (hTac1-hM4D) injected into the right trigeminal ganglion. CNO or vehicle was delivered i.p. 30 minutes prior to the s.c. injection of 1.5% formalin (50 μl) into the right upper lip (ipsilateral side), just lateral to the nose.

The target of assay [4] is T2, hTac1-hM4D. Nature of the assay: von Frey detection threshold, Tac1-DREADD (hTac1-hM4D) in right trigeminal ganglion, non-CCI animals. Conditions: females, n=7 per group, CNO i.p. vs vehicle. An excerpt:
The effects of Tac1-DREADD activation with CNO on von Frey detection threshold were also studied (FIG. 7). All animals (female, n=7 per group) had Tachykinin 1-DREADD (hTac1-hM4D; Tac1 promoter driven DREADD) injected into the right trigeminal ganglion. Average von Frey detection thresholds (±SEM) are plotted following intraperitoneal administration of CNO or vehicle.

Assay [5] has as its target T2, hTac1-hM4D. The experiment in a line: Pain-like behavior after IoN-CCI, Tac1-DREADD (hTac1-hM4D). Conditions: IoN-CCI males.
Text: as §1
as §2, with “Tac1-DREADD” for “synapsin-DREADD”, “IoN-CCI” for “chronic constriction injury (CCI) of the infraorbital nerve (ION)”, “were” for “were also”, “10).” for “6).”, “n=7” for “n=4”, “tachykinin 1-DREADD (hTac1-hM4D)” for “synapsin-DREADD (hSyn-hM4D)”

Where [6] appears, read: Tac1-DREADD study (sentence prints hSyn-hM4D), CNO i.p. at D26.

As to `C[N+]1([O-])CCN(C2=Nc3cc(Cl)ccc3Nc3ccccc32)CC1` [CNO, clozapine N-oxide], the “total face grooming time, tonic phase (12-45 minutes post formalin injection)” value at hSyn-hM4D [1] (females, CNO i.p. 30 min prior to formalin, F=5.5, P=0.02) was “significantly reduced”; at hSyn-hM4D [1] (males, CNO i.p. 30 min prior to 1.5% formalin (50 μl) s.c., F=27.1, P<0.0001), “significantly reduced”; at hTac1-hM4D [3] (CNO i.p. 30 min prior to formalin, F=1.6, P=0.2), “no significant effect”. Besides, the “total face grooming time, acute phase (0-6 minutes post formalin injection)” value at hSyn-hM4D [1] (males, CNO i.p. 30 min prior to formalin, F=4.5, P=0.04) is given as “significant reduction”; at hTac1-hM4D [3] (CNO i.p. 30 min prior to 1.5% formalin (50 μl) s.c., F=0.07, P=0.8), “no significant effect”. Moreover, the “pin-prick response score, contralateral side” value at hSyn-hM4D [2] (CNO i.p. at D26) and on hTac1-hM4D [5] (setting [6]) was “No significant effects” in each case. Also, the “von Frey detection threshold, contralateral side” value on hSyn-hM4D [2] (CNO i.p. at D26) and on hTac1-hM4D [5] (setting [6]) was “No significant effects” in each case. For the same compound, the “von Frey detection threshold, ipsilateral side, compared to post-operative days 21 and 27” value on hSyn-hM4D [2] (CNO i.p. at D26, D21 F=20.4, P=0.004, D27 F=7.8, P=0.03) is “significantly increased”; at hTac1-hM4D [5] (hTac1-hM4D, CNO i.p. at D26, D21 F=31.4, P<0.0001, D27 F=9.8, P=0.006), “significantly increased”. For the same compound, the “pin-prick response score, ipsilateral side, compared to post-operative days 21 and 27” value is recorded as “significantly decreased” on hSyn-hM4D [2] (CNO i.p. at D26, D21 F=32, P=0.001, D27 F=21, P=0.004) and “significantly decreased” at hTac1-hM4D [5] (hTac1-hM4D, CNO i.p. at D26, D21 F=18.9, P=0.0003, D27 F=16.9, P=0.0006). For the same compound, the “von Frey detection threshold, ipsilateral side, compared to vehicle treated animals” value at hSyn-hM4D [2] (n=4 per group, CNO i.p. at D26, 30 min prior to testing, F=7.8, P=0.03) is recorded as “significantly increased”; at hTac1-hM4D [5] (n=7 per group, hTac1-hM4D, CNO i.p. at D26, 30 min prior to testing, F=6.3, P=0.03), “significantly increased”. Moreover, the “pin-prick response score, ipsilateral vibrissal pad, compared to vehicle treated animals” value at hSyn-hM4D [2] (n=4 per group, CNO i.p. at D26, F=7.7, P=0.03) was “significantly decreased”; on hTac1-hM4D [5] (n=7 per group, hTac1-hM4D, CNO i.p. at D26, F=8.6, P=0.01), “significantly decreased”. Further, the “von Frey detection threshold, contralateral vibrissal pad” value at hTac1-hM4D [4] (F=0.4, P=0.6) was “no significant effect”. For the same compound, the “von Frey detection threshold, ipsilateral vibrissal pad” value at hTac1-hM4D [4] (F=1.4, P=0.3) was “no significant effect”.
